# Assay: Ionizable cationic lipid library screen, in vitro delivery of luciferase mRNA (mLuc)
# Assay type: cell-based
# Details: 18*8 library, LNPs with DOPE, cholesterol, DMG-PEG
# Text: In some embodiments, an ionizable cationic lipid is generally composed of three parts: (1) one or more hydrophilic headgroups containing one or multiple ionizable amines for condensing negatively charged mRNA; (2) one or more hydrophobic hydrocarbon chains capable of promoting self-assembly and phospholipid membrane fusion; and (3) one or more degradable ester linkers connecting the headgroups with the hydrocarbon chains to potentially lower systemic cytotoxicity, as shown in FIG. 9B. In some embodiments, a new library of ionizable cationic lipids is provided, with ionizable amine headgroups derived from different amino alcohols and hydrocarbon lipid chains derived from commercially available lipid acids. In some embodiments, using CALB enzyme-assisted reaction, the hydroxyl groups were reacted with carboxylic acids via one-step high-efficiency esterification, as shown in FIG. 9A. An 18*8 library of lipid-like materials was synthesized by varying amino alcohols and lipid acids. These lipid-like materials with DOPE, cholesterol, and DMG-PEG were fabricated at a molar ratio of 50:10:38.5:1.5, which was a widely used formulation to form LNPs and delivered luciferase encoded mRNA (mLuc) in vitro to generate a luciferase expression heat map of lipid-like materials. […]
smiles,measurement,value
CCCCC/C=C\C/C=C\CCCCCCCC(=O)OCCN1CCN(CCOC(=O)CCCCCCC/C=C\C/C=C\CCCCC)CC1 [AA3-DLin],rank in luciferase expression screen of lipid-like materials,top-performing
